In publication PMC12281475, “Mediator Kinase Inhibitor Selectivity and Activity in Colorectal Cancer” (ACS Chemical Biology, 2025):

Experiments:
CDK9_CycK = biological target: T1, CDK9_CycK (Homo sapiens, UniProt P50750); test: Radiometric protein kinase assay (33PanQinase), CDK9_CycK; format: biochemical
T1 construct: purchased Reaction Biology

CDK19_CycC = biological target: T2, CDK19_CycC (Homo sapiens, UniProt Q9BWU1); test: Radiometric protein kinase assay (33PanQinase), CDK19_CycC; format: biochemical
T2 construct: purchased Reaction Biology

CDK4_CycD3 = biological target: T3, CDK4_CycD3 (Homo sapiens, UniProt P11802); test: Radiometric protein kinase assay (33PanQinase), CDK4_CycD3; format: biochemical
T3 construct: purchased Reaction Biology

CDK5_p35NCK = biological target: T4, CDK5_p35NCK (Homo sapiens, UniProt Q00535); test: Radiometric protein kinase assay (33PanQinase), CDK5_p35NCK; format: biochemical
T4 construct: purchased Reaction Biology

CDK8_CycC = biological target: T5, CDK8_CycC (Homo sapiens, UniProt P49336); test: Radiometric protein kinase assay (33PanQinase), CDK8_CycC; format: biochemical
T5 construct: purchased Reaction Biology

CDK4_CycD1 = biological target: T6, CDK4_CycD1 (Homo sapiens, UniProt P11802); test: Radiometric protein kinase assay (33PanQinase), CDK4_CycD1; format: biochemical
T6 construct: purchased Reaction Biology

CDK15_CycA2 = biological target: T7, CDK15_CycA2 (Homo sapiens, UniProt Q96Q40); test: Radiometric protein kinase assay (33PanQinase), CDK15_CycA2; format: biochemical
T7 construct: purchased Reaction Biology

CDK18_CycY = CDK18_CycY (Homo sapiens, UniProt Q07002); test: Radiometric protein kinase assay (33PanQinase), CDK18_CycY; format: biochemical
CDK3_CycC = biological target: T8, CDK3_CycC (Homo sapiens, UniProt Q00526); test: Radiometric protein kinase assay (33PanQinase), CDK3_CycC; format: biochemical
T8 construct: purchased Reaction Biology

CDK12_CycK = biological target: T9, CDK12_CycK (Homo sapiens, UniProt Q9NYV4); test: Radiometric protein kinase assay (33PanQinase), CDK12_CycK; format: biochemical
T9 construct: purchased Reaction Biology

CDK10_CycQ = CDK10_CycQ (Homo sapiens, UniProt Q15131); test: Radiometric protein kinase assay (33PanQinase), CDK10_CycQ; format: biochemical
CDK17_p35NCK = CDK17_p35NCK (Homo sapiens, UniProt Q00537); test: Radiometric protein kinase assay (33PanQinase), CDK17_p35NCK; format: biochemical
CDK3_CycE1 = biological target: T10, CDK3_CycE1 (Homo sapiens, UniProt Q00526); test: Radiometric protein kinase assay (33PanQinase), CDK3_CycE1; format: biochemical
T10 construct: purchased Reaction Biology

CDK13_CycK = biological target: T11, CDK13_CycK (Homo sapiens, UniProt Q14004); test: Radiometric protein kinase assay (33PanQinase), CDK13_CycK; format: biochemical
T11 construct: purchased Reaction Biology

CDK9_CycT1 = biological target: T12, CDK9_CycT1 (Homo sapiens, UniProt P50750); test: Radiometric protein kinase assay (33PanQinase), CDK9_CycT1; format: biochemical
T12 construct: purchased Reaction Biology

COLO205 cells = test: Promoter reporter panel (transient luciferase constructs), COLO205; format: cell-based, human; settings: COLO205, 350 nM, 6 h
Protocol: Transcription factor activity was assayed in cell lines using 45 different plasmid reporter constructs encoding firefly luciferase under the control of a basal promoter element downstream of specific transcriptional response elements (Qiagen, Germany; Supporting Table S1). Firefly luciferase under the control of basal promoter element alone was used to establish the baseline signal and cotransfection of a construct expressing renilla luciferase from a CMV-promoter was used as a transfection control. Cells were reverse-transfected with reporter plasmids, compounds were added 42 h post transfection and reporter activity quantified following 6 h continuous exposure.
Transcription factor promoter reporter assays were carried out to define signalling pathways and biological processes modulated by CDK8/19 ligands. A panel of plasmid reporter constructs encoding firefly luciferase under the control of a basal promoter element with specific transcriptional response elements were used (Qiagen, Germany;
Firefly luciferase under the control of the minimal promoter element (TATA box) alone was used to establish the base-line signal and a construct expressing renilla luciferase from a CMV-promoter was used as a transfection control. COLO205 human colon cancer cells or SW620 parental and CRISPR KO cells were reverse-transfected with the panel of plasmid reporters in a 96 well plate format. The reporter mixes were prepared at 40:1 ratio of fLUC to rLUC plasmid at a final concentration of
100 ng/ml. For each well 1 ul plasmid was complexed with 1 ul Lipofectamine 2000
(Thermo Fisher Scientific, UK) in 50 ul OptiMEM (Thermo Fisher Scientific, UK) media
for 20 mins at room temperature. Cells were trypsinised and 50 ul of cells at 2e5
cells/ml in supplemented DMEM were added to the 50 ul of plasmid:lipofectamine
mixture in OptiMEM in a well of a 96-well white opaque flat bottom microtiter plate.
fLUC and rLUC were measured by the addition of 100 ul dual glo luciferase reagent
(Promega, USA). Reporter activity was quantified in untreated cells 48 hours post- […]

CDK20_CycH = CDK20_CycH (Homo sapiens, UniProt Q8IZL9); test: Radiometric protein kinase assay (33PanQinase), CDK20_CycH; format: biochemical
CDK14_CycY = CDK14_CycY (Homo sapiens, UniProt O94921); test: Radiometric protein kinase assay (33PanQinase), CDK14_CycY; format: biochemical
CDK2_CycA2 = biological target: T13, CDK2_CycA2 (Homo sapiens, UniProt P24941); test: Radiometric protein kinase assay (33PanQinase), CDK2_CycA2; format: biochemical
T13 construct: purchased Reaction Biology

CDK16_CycY = biological target: T14, CDK16_CycY (Homo sapiens, UniProt Q00536); test: Radiometric protein kinase assay (33PanQinase), CDK16_CycY; format: biochemical
T14 construct: purchased Reaction Biology

CDK7_CycH_MAT1 = biological target: T15, CDK7_CycH_MAT1 (Homo sapiens, UniProt P50613); test: Radiometric protein kinase assay (33PanQinase), CDK7_CycH_MAT1; format: biochemical
T15 construct: purchased Reaction Biology

CDK1_CycA2 = biological target: T16, CDK1_CycA2 (Homo sapiens, UniProt P06493); test: Radiometric protein kinase assay (33PanQinase), CDK1_CycA2; format: biochemical
T16 construct: purchased Reaction Biology

CDK1_CycB1 = biological target: T17, CDK1_CycB1 (Homo sapiens, UniProt P06493); test: Radiometric protein kinase assay (33PanQinase), CDK1_CycB1; format: biochemical
T17 construct: purchased Reaction Biology

CDK6_CycD2 = biological target: T18, CDK6_CycD2 (Homo sapiens, UniProt Q00534); test: Radiometric protein kinase assay (33PanQinase), CDK6_CycD2; format: biochemical
T18 construct: purchased Reaction Biology

CDK20_CycT1 = CDK20_CycT1 (Homo sapiens, UniProt Q8IZL9); test: Radiometric protein kinase assay (33PanQinase), CDK20_CycT1; format: biochemical
CDK6_CycD3 = biological target: T19, CDK6_CycD3 (Homo sapiens, UniProt Q00534); test: Radiometric protein kinase assay (33PanQinase), CDK6_CycD3; format: biochemical; settings: slope of the IC50 fit
T19 construct: purchased Reaction Biology

CDK8 = system: CDK8; set-up: method as in numbers not given; settings: reporter displacement assay; previously characterized compounds, no method in this paper; ref numbers not given; read-out: IC50 for in vitro CDK8 binding; cited from earlier work
CDK5_p25NCK = biological target: T20, CDK5_p25NCK (Homo sapiens, UniProt Q00535); test: Radiometric protein kinase assay (33PanQinase), CDK5_p25NCK; format: biochemical
T20 construct: purchased Reaction Biology

CDK11B 357-795_CycK = CDK11B 357-795_CycK (Homo sapiens, UniProt P21127); test: Radiometric protein kinase assay (33PanQinase), CDK11B 357-795_CycK; format: biochemical
CDK2_CycD1 = biological target: T21, CDK2_CycD1 (Homo sapiens, UniProt P24941); test: Radiometric protein kinase assay (33PanQinase), CDK2_CycD1; format: biochemical
T21 construct: purchased Reaction Biology

CDK1_CycE1 = biological target: T22, CDK1_CycE1 (Homo sapiens, UniProt P06493); test: Radiometric protein kinase assay (33PanQinase), CDK1_CycE1; format: biochemical
T22 construct: purchased Reaction Biology

CDK2_CycE1 = biological target: T23, CDK2_CycE1 (Homo sapiens, UniProt P24941); test: Radiometric protein kinase assay (33PanQinase), CDK2_CycE1; format: biochemical
T23 construct: purchased Reaction Biology

CDK4_CycD2 = biological target: T24, CDK4_CycD2 (Homo sapiens, UniProt P11802); test: Radiometric protein kinase assay (33PanQinase), CDK4_CycD2; format: biochemical
T24 construct: purchased Reaction Biology

CDK6_CycD1 = biological target: T25, CDK6_CycD1 (Homo sapiens, UniProt Q00534); test: Radiometric protein kinase assay (33PanQinase), CDK6_CycD1; format: biochemical
T25 construct: purchased Reaction Biology

[1] = highest assay concentration 1.00E-05 M

Chain of CDK10_CycQ (Q15131 whole entry): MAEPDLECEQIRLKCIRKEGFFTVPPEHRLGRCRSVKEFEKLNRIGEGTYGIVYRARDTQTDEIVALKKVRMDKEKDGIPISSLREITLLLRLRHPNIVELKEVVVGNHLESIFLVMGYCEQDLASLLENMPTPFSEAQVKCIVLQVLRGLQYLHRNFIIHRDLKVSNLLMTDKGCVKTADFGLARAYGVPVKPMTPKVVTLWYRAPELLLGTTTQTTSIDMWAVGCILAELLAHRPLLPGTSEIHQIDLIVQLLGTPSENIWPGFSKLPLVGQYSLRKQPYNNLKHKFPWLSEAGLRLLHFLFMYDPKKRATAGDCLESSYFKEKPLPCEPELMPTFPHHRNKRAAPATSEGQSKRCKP
Chain of CDK10_CycQ (Q8N1B3 whole entry partner): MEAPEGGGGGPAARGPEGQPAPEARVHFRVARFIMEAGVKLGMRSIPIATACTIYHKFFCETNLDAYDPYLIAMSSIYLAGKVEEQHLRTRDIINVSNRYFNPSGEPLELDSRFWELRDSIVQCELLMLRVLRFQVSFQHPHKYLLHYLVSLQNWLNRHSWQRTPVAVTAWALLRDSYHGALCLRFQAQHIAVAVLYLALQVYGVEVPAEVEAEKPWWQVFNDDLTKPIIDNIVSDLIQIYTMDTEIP
T12 sequence (P50750 whole entry): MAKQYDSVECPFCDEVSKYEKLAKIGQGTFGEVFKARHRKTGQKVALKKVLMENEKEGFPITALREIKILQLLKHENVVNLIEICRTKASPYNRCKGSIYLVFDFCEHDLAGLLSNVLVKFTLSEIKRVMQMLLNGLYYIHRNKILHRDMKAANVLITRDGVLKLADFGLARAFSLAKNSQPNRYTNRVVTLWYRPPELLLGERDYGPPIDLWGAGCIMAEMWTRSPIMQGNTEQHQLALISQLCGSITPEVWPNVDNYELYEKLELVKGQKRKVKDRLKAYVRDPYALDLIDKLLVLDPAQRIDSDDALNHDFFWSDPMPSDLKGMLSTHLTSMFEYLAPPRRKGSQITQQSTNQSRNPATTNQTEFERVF
T12 sequence (O60563 whole entry partner): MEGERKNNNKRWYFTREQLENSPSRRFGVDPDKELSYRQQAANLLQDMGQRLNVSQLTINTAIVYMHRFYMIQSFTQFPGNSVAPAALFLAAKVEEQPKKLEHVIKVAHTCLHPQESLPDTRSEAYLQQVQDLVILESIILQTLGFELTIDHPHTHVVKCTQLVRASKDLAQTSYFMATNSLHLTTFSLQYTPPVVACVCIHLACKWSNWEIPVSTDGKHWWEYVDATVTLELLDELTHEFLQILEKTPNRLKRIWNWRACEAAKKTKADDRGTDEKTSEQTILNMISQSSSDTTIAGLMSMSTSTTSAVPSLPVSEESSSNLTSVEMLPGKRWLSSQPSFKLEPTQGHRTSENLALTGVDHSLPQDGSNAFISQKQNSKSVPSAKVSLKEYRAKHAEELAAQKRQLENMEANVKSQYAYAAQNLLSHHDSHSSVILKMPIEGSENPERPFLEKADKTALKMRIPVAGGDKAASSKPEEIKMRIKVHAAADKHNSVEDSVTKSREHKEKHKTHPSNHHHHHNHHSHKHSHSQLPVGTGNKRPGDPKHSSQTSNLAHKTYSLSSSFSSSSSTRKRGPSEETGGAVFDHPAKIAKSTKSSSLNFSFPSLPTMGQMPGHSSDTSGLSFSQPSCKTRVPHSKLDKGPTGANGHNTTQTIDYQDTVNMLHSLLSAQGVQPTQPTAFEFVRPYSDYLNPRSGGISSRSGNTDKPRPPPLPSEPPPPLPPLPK
T1 sequence (P50750 whole entry): as the sequence (P50750 whole entry) above
T1 sequence (O75909 whole entry partner): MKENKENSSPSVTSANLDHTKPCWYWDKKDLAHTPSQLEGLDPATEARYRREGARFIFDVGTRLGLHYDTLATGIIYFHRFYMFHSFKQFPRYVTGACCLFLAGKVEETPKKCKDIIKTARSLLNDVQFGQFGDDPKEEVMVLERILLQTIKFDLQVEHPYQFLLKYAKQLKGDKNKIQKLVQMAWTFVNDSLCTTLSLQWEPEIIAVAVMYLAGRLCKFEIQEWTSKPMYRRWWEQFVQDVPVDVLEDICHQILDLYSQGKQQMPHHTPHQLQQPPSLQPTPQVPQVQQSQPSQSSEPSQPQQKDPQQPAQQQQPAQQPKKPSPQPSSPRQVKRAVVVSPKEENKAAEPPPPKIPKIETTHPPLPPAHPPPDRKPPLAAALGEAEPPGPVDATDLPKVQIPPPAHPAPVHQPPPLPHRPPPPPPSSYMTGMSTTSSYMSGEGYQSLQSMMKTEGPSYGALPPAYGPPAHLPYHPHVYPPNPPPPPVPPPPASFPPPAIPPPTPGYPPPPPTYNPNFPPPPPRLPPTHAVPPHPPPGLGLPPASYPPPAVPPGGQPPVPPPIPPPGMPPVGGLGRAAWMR
Chain of CDK14_CycY (O94921 whole entry): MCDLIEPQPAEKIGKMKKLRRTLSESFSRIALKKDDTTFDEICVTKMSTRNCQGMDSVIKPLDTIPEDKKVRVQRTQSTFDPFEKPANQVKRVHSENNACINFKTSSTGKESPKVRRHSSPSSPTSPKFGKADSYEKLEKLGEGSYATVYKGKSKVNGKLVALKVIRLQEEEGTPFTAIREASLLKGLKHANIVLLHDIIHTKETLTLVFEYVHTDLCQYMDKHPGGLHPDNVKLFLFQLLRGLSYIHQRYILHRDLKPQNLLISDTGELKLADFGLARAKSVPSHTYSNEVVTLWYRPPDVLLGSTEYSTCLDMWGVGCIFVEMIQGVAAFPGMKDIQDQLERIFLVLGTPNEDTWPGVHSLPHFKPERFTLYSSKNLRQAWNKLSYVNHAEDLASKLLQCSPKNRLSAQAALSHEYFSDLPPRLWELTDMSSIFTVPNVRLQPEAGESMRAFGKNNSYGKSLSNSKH
Chain of CDK14_CycY (Q8ND76 whole entry partner): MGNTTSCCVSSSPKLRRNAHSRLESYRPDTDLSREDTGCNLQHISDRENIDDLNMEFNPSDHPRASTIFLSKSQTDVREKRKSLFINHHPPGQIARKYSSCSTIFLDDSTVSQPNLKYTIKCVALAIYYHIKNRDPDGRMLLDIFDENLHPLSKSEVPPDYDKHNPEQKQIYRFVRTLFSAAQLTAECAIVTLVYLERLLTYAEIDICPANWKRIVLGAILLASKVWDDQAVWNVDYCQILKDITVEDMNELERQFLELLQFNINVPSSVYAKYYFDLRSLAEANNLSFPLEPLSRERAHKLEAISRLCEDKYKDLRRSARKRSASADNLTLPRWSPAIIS
T17 sequence (P06493 whole entry): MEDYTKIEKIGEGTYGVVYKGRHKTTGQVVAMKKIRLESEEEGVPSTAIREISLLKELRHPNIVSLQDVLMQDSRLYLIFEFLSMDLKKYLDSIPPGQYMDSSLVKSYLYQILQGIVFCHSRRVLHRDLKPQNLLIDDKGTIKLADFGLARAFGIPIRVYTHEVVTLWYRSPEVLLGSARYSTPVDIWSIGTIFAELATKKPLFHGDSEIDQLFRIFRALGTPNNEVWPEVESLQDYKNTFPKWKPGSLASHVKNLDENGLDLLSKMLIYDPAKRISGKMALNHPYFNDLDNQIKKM
T17 sequence (P14635 whole entry partner): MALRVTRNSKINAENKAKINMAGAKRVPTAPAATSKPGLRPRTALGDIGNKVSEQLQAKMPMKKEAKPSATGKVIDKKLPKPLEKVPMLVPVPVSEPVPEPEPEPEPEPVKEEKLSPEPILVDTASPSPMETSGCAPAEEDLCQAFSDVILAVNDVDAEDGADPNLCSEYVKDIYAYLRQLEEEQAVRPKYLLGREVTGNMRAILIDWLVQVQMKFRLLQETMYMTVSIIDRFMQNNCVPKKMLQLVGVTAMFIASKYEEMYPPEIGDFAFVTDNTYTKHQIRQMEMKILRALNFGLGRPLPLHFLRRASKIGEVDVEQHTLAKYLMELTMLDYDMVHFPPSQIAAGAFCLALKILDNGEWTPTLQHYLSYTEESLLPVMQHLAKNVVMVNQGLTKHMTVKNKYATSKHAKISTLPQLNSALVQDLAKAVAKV
Chain of CDK18_CycY (Q07002 whole entry): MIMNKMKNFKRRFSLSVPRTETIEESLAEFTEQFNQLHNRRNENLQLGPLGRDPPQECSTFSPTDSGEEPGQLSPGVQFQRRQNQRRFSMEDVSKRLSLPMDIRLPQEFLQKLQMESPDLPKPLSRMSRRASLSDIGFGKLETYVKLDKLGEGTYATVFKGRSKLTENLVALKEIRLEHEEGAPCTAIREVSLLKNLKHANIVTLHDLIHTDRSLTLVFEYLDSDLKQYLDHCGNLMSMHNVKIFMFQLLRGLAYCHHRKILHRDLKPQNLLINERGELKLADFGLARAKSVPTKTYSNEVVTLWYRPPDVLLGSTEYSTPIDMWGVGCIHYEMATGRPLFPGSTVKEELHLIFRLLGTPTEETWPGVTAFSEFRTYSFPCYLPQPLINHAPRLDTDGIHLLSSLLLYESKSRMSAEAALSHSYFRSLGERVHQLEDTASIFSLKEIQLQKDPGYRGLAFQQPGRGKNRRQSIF
Chain of CDK18_CycY (Q8ND76 whole entry partner): as the sequence (Q8ND76 whole entry partner) above
Chain of CDK17_p35NCK (Q00537 whole entry): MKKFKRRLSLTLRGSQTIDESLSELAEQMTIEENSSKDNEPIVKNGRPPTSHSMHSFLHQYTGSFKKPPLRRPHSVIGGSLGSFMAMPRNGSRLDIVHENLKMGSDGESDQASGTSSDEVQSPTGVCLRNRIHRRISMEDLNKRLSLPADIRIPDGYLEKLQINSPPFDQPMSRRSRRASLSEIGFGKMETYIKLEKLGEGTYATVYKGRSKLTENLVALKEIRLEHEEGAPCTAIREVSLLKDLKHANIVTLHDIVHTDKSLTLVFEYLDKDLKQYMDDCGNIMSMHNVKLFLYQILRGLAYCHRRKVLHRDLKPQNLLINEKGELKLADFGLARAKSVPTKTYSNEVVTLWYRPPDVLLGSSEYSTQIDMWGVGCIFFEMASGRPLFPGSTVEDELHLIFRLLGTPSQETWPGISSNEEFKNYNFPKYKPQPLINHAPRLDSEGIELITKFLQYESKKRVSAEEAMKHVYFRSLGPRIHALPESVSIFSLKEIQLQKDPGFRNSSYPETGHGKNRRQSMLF

## Cc1n[nH]c2ncc(C(=O)N3CCC[C@H]3c3ccc(Cl)cc3)cc12 [MSC2530818]
CDK9_CycK; [1]
  IC50: > 10 µM
CDK9_CycK; slope of the IC50 fit
  Hill Slope: -0.78
CDK19_CycC
  IC50: 0.355 µM
CDK19_CycC; slope of the IC50 fit
  Hill Slope: -0.43
CDK4_CycD3; [1]
  IC50: > 10 µM
CDK4_CycD3; slope of the IC50 fit
  Hill Slope: -0.71
CDK5_p35NCK; [1]
  IC50: 7.57 µM
CDK5_p35NCK; slope of the IC50 fit
  Hill Slope: -1.04
CDK8_CycC
  IC50: 0.114 µM
CDK8_CycC; slope of the IC50 fit
  Hill Slope: -0.45
CDK4_CycD1; [1]
  IC50: > 10 µM
CDK4_CycD1; slope of the IC50 fit
  Hill Slope: -0.48
CDK15_CycA2; [1]
  IC50: > 10 µM
CDK15_CycA2; slope of the IC50 fit
  Hill Slope: -0.85
CDK18_CycY; [1]
  IC50: 3.72 µM
CDK18_CycY; slope of the IC50 fit
  Hill Slope: -1.14
CDK3_CycC
  IC50: 6.41 µM
CDK3_CycC; slope of the IC50 fit
  Hill Slope: -0.76
CDK12_CycK; [1]
  IC50: 9.75 µM
CDK12_CycK; slope of the IC50 fit
  Hill Slope: -0.59
CDK10_CycQ; [1]
  IC50: > 10 µM
CDK10_CycQ; slope of the IC50 fit
  Hill Slope: -1.12
CDK17_p35NCK; [1]
  IC50: > 10 µM
CDK17_p35NCK; slope of the IC50 fit
  Hill Slope: -0.57
CDK3_CycE1
  IC50: > 10 µM
CDK3_CycE1; slope of the IC50 fit
  Hill Slope: -0.54
CDK13_CycK
  IC50: > 10 µM
CDK13_CycK; slope of the IC50 fit
  Hill Slope: -0.19
CDK9_CycT1; [1]
  IC50: > 10 µM
CDK9_CycT1; slope of the IC50 fit
  Hill Slope: -1.26
COLO205 cells
  reduction of activity of TCF/LEF, SP1 and PAX6 reporter constructs: > 1.5 fold
CDK20_CycH; [1]
  IC50: > 10 µM
CDK20_CycH; slope of the IC50 fit
  Hill Slope: -0.81
CDK14_CycY; [1]
  IC50: > 10 µM
CDK14_CycY; slope of the IC50 fit
  Hill Slope: -1
CDK2_CycA2
  IC50: 6.53 µM
CDK16_CycY; [1]
  IC50: > 10 µM
CDK16_CycY; slope of the IC50 fit
  Hill Slope: -0.58
CDK7_CycH_MAT1; [1]
  IC50: > 10 µM
CDK7_CycH_MAT1; slope of the IC50 fit
  Hill Slope: -0.6
CDK1_CycA2
  IC50: 6.46 µM
CDK1_CycA2; slope of the IC50 fit
  Hill Slope: -0.93
CDK1_CycB1; [1]
  IC50: > 10 µM
CDK1_CycB1; slope of the IC50 fit
  Hill Slope: -0.72
CDK6_CycD2; [1]
  IC50: > 10 µM
CDK6_CycD2; slope of the IC50 fit
  Hill Slope: -1.11
CDK20_CycT1; [1]
  IC50: > 10 µM
CDK20_CycT1; slope of the IC50 fit
  Hill Slope: -0.44
CDK6_CycD3
  Hill Slope: -0.25
CDK8
  IC50: 0.0044 µM
CDK5_p25NCK; [1]
  IC50: > 10 µM
CDK5_p25NCK; slope of the IC50 fit
  Hill Slope: -0.57
CDK11B 357-795_CycK; [1]
  IC50: > 10 µM
CDK11B 357-795_CycK; slope of the IC50 fit
  Hill Slope: -0.64
CDK2_CycD1
  IC50: 9.73 µM
CDK2_CycD1; slope of the IC50 fit
  Hill Slope: -1.08
CDK1_CycE1
  IC50: 4.15 µM
CDK1_CycE1; slope of the IC50 fit
  Hill Slope: -0.97
CDK2_CycE1
  IC50: 2.92 µM
CDK2_CycE1; slope of the IC50 fit
  Hill Slope: -1.29
CDK4_CycD2; [1]
  IC50: > 10 µM
CDK4_CycD2; slope of the IC50 fit
  Hill Slope: -0.44
CDK6_CycD1; [1]
  IC50: > 10 µM
CDK6_CycD1; slope of the IC50 fit
  Hill Slope: -0.22

## Cc1n[nH]c2ncc(C(=O)N3CCC[C@@H]3c3ccc(Cl)cc3)cc12 [MSC2530819]
CDK8
  IC50: 0.59 µM
